A word on the Tmax: it is the time at which the peak concentration occurs.

Molecules are shown by their SMILES.

The nature of data set [1]: Preliminary analysis of pharmacokinetic results from the clinical studies as a whole. It counts as in vivo, human. An excerpt:
The results were similar across the common doses in the 4 studies. […] See also FIG. 10.

A further data set deals with healthy subjects. Description: Safety: single-dose study in healthy subjects (30-75 mg/kg, 20 mg/kg bid). It counts as in vivo. On the procedure: This was a single-center, double-blind, placebo-controlled study of ascending single oral doses of Compound 1. Six cohorts of 8 subjects (30 and 50 mg/kg single doses) or 5 subjects (40, 60, and 75 mg/kg single doses and 20 mg/kg×2 doses at 12 hour intervals) were dosed sequentially with Compound 1. Within each cohort, 7 or 4 subjects received Compound 1 and 1 subject received placebo. Subjects in the 20 mg/kg×2 doses cohort received a dose the evening prior to the study day (Day −1), approximately 12 hours prior to dosing on Day 1. The dose administered on Day −1 followed a 2-hour fast and that on Day 1 a 10-hour fast.
Thirty-one subjects were enrolled and completed the study: 26 received a single oral dose of Compound 1 [30 (7 subjects), 40 (4 subjects), 50 (7 subjects), 60 (4 subjects) and 75 mg/kg (4 subjects)], 4 subjects previously administered a single dose at 30 and 40 mg/kg received 20 mg/kg bid and 5 received placebo. […] Treatment-emergent adverse events were reported for 13 of the 26 subjects receiving Compound 1 (50%). TEAEs in the active groups included catheter site erythema or hematoma (3 subjects), fatigue (1 subject), headache (2 subjects), dysgueusia (1 subject), presyncope (1 subject), abdominal pain (1 subject), nausea (1 subject), back pain (1 subject), muscle spasm (1 subject), decreased appetite (1 subject), chromaturia (1 subject).

The mark [2] stands for this setting: single oral dose 30-75 mg/kg, 20 mg/kg bid.

As for `COCCOCCOCCOc1cccc(C2=N[C@@](C)(C(=O)O)CS2)c1O` [Compound 1, (S)-4,5-Dihydro-2-[2-hydroxy-3-(3,6,9-trioxadecyloxy)phenyl]-4-methyl-4-thiazolecarboxylate magnesium hydroxide], the dose proportionality result in data set [1] (dosing range of 3 to 50 mg/kg, preliminary analysis) is “dose-proportionality in Cmax and AUC”. The Tmax in data set [1] (human, plasma, oral, in each study) is about 1 h. Also, in the data set on healthy subjects (13 of the 26 subjects), the “subjects with treatment-emergent adverse events” value came to 50%. Further, in the data set with healthy subjects (active groups, 26 subjects), the TEAE abdominal pain is on record as 1 subject, the TEAE back pain turned out to be 1 subject, the “TEAE catheter site erythema or hematoma” value came to 3 subjects and the TEAE chromaturia is on record as 1 subject. Besides, in the data set with healthy subjects (active groups, 26 subjects), the TEAE decreased appetite is 1 subject, the TEAE dysgueusia was 1 subject, the TEAE fatigue stood at 1 subject and the TEAE headache is given as 2 subjects. In the data set with healthy subjects (active groups, 26 subjects), this compound showed a TEAE muscle spasm of 1 subject, a TEAE nausea of 1 subject and a TEAE presyncope of 1 subject. The “intensity of all AEs” value in the data set on healthy subjects (after treatment) is listed as “mild intensity”. For the same compound, in the data set with healthy subjects (daily dose higher than 40 mg/kg of body weight), the “serious side effects in humans” value is on record as “no serious side effects were observed”. Also, in the data set on healthy subjects (setting [2]), the “deaths, SAEs, withdrawals due to AEs” value is “no deaths, SAEs), or withdrawals due to AEs” and the tolerability entry was “well tolerated”.

The values above are taken from patent publication US8993606B2, “Oral formulations for treating metal overload” (FerroKin BioSciences, Inc., priority 2011, dated 2015).
